Measured values taken from patent US20040072990A1, “Antimicrobial peptides with reduced hemolysis and methods of their use” (priority 2002, published 2004).
Converted amounts (≈) assume the structure as drawn. Residues, ends and D or L forms follow the SMILES beside them.

Columns and labels:
[1] = system: human red blood cells; assay: Erythrocyte lysis (hemolysis); format: cell-based
Description: Pac 521-530 were tested for hemolysis against human red blood cells (RBC). The RBCs with EDTA were rinsed 3 times with PBS (800 g, 10 min) and resuspended in PBS. The RBCs were diluted into 10% with phosphate-buffered saline and placed 50 μl into each eppendorf. The peptides that dissolved in PBS were then added to 50 μl of 10% solution of RBCs and incubated for an hour at 37° C. (final RBC concentration, 5% v/v). The samples were centrifuged at 800 g for 10 min […]. Various concentrations of peptides were incubated with pretreated RBC and the percentage of hemolysis determined. […]

[2] = system: S. aureus; assay: MIC test (NCCLS broth microdilution); format: cell-based, Staphylococcus aureus
Description: (§1) The MIC value is the lowest concentration of peptide at which the visible growth of test organisms is inhibited and reduced.
(§2) Briefly, overnight cultures of the test organisms were diluted to produce an inoculum containing approximately 10^5 colonies in Meuller-Hinton broth (MHB). From the peptide stock solution, serial two-dilutions of the peptides in 50 μl volume was prepared in a 96-well microtiter plate, and all wells were subsequently inoculated with the diluted culture of the test organisms. After 18 hours of incubation at 37° C., the results were assayed for turbidity (cell growth). MIC values were performed three times on different occasions (FIG. 2), and the median values are shown.

[3] = system: B. cereus; assay: MIC test (NCCLS broth microdilution); format: cell-based, Bacillus cereus
Description: (§3) Generally, the in vitro antimicrobial activities of antimicrobial agents were tested using standard NCCLS bacterial inhibition assays, or minimum inhibition concentration (MIC) tests. The MIC value is the lowest concentration of peptide at which the visible growth of test organisms is inhibited and reduced.
as §2

[4] = system: B. pumilus; assay: MIC test (NCCLS broth microdilution); format: cell-based, Bacillus pumilus
Description: as §3, §2

[5] = system: B. substiis; assay: MIC test (NCCLS broth microdilution); format: cell-based, Bacillus. substilis
Description: as §3, §2

[6] = system: E. coli; assay: MIC test (NCCLS broth microdilution); format: cell-based
Description: as §1, §2

[7] = system: P. aeruginosa; assay: MIC test (NCCLS broth microdilution); format: cell-based, Pseudomonas aeruginosa
Description: as §3, §2

[8] = system: S. epidermidis; assay: MIC test (NCCLS broth microdilution); format: cell-based, Staphylococcus epidermidis
Description: as §3, §2

## CC[C@H](C)[C@H](NC(=O)[C@H](Cc1c[nH]c2ccccc12)NC(=O)[C@H](CCCNC(=N)N)NC(=O)[C@@H](NC(=O)[C@H](Cc1c[nH]c2ccccc12)NC(=O)[C@H](CCCNC(=N)N)NC(=O)[C@H](CCCNC(=N)N)NC(=O)[C@H](Cc1c[nH]c2ccccc12)NC(=O)[C@@H](N)CCCCN)C(C)C)C(N)=O [Pac-525 L, K W R R W V R W I] (H-KWRRWVRWI-NH2; N-terminus and C-terminus assumed)
[1]
  % lysis at 5 μg/ml: 0.81%
  % lysis at 50 μg/ml: 7.2%
  % lysis at 500 μg/ml: 14%
[1]; human RBC, in words
  hemolysis against RBC compared with other antimicrobial peptides: substantially less hemolytic

## CC[C@H](C)[C@H](NC(=O)[C@H](Cc1ccccc1)NC(=O)[C@H](CCCNC(=N)N)NC(=O)[C@@H](NC(=O)[C@H](Cc1ccccc1)NC(=O)[C@H](CCCNC(=N)N)NC(=O)[C@H](CCCNC(=N)N)NC(=O)[C@H](Cc1ccccc1)NC(=O)[C@@H](N)CCCCN)C(C)C)C(N)=O [Pac-527 L, K F R R F V R F I] (H-KFRRFVRFI-NH2; N-terminus assumed)
[2]; 1X Phosphate Buffer
  MIC: 4 µg/mL (≈ 3.16 µM)
[2]; Non Phosphate Buffer
  MIC: 4 µg/mL (≈ 3.16 µM)
[3]; 1X Phosphate Buffer
  MIC: 4 µg/mL (≈ 3.16 µM)
[3]; Non Phosphate Buffer
  MIC: 4 µg/mL (≈ 3.16 µM)
[4]; 1X Phosphate Buffer
  MIC: 4 µg/mL (≈ 3.16 µM)
[4]; Non Phosphate Buffer
  MIC: 2 µg/mL (≈ 1.58 µM)
[5]; 1X Phosphate Buffer
  MIC: 2 µg/mL (≈ 1.58 µM)
[5]; Non Phosphate Buffer
  MIC: 4 µg/mL (≈ 3.16 µM)
[6]; 1X Phosphate Buffer
  MIC: 8 µg/mL (≈ 6.31 µM)
[6]; Non Phosphate Buffer
  MIC: 4 µg/mL (≈ 3.16 µM)
[7]; 1X Phosphate Buffer
  MIC: 8 µg/mL (≈ 6.31 µM)
[7]; Non Phosphate Buffer
  MIC: 4 µg/mL (≈ 3.16 µM)
[8]; 1X Phosphate Buffer
  MIC: 4 µg/mL (≈ 3.16 µM)
[8]; Non Phosphate Buffer
  MIC: 2 µg/mL (≈ 1.58 µM)

## CC[C@H](C)[C@H](NC(=O)[C@H](Cc1c[nH]c2ccccc12)NC(=O)[C@H](CCCNC(=N)N)NC(=O)[C@H](CCCNC(=N)N)NC(=O)[C@H](Cc1c[nH]c2ccccc12)NC(=O)[C@@H](N)CCCCN)C(N)=O [Pac 301 L, K W R R W I] (H-KWRRWI-NH2; N-terminus and C-terminus assumed)
[1]
  % lysis at 5 μg/ml: 0.85%
  % lysis at 50 μg/ml: 6.8%
  % lysis at 500 μg/ml: 14%

## CC[C@H](C)[C@H](NC(=O)[C@H](Cc1c[nH]c2ccccc12)NC(=O)[C@H](CCCCN)NC(=O)[C@@H](NC(=O)[C@H](Cc1c[nH]c2ccccc12)NC(=O)[C@@H](N)CCCCN)[C@@H](C)CC)C(N)=O [Pac-305 L, K W I K W I] (H-KWIKWI-NH2; N-terminus and C-terminus assumed)
[1]
  % lysis at 5 μg/ml: 0.74%
  % lysis at 50 μg/ml: 7.2%
  % lysis at 500 μg/ml: 15%
